Measurements as given in patent US20230118688A1, “1H-PYRAZOLO[4,3-d]PYRIMIDINE COMPOUNDS AS TOLL-LIKE RECEPTOR 7 (TLR7) AGONISTS” (BRISTOL-MYERS SQUIBB COMPANY, priority 2020, published 2023).
Where two headings read alike, the source gives them in different places.

Experiments:
CD69 = experiment: Induction of CD69 in human whole blood; type: cell-based; settings: 17 h, CD69 surface staining, 100% set to 1 uM resiquimod
Summary of the method: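 Heparinized human whole blood, RPMI-diluted, incubated with TLR7 agonist (final 1 uM from 1 mM stock) for 17 h at 37 °C. CD69-PE surface staining with CD14/CD19 gating, fix/lysis, then flow cytometry; curves normalized with 1 uM resiquimod as 100%.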

human TLR7 = target: T1, human TLR7 (Homo sapiens, UniProt Q9NYK1); experiment: Human TLR7 agonist activity reporter assay (HEK-Blue TLR7 cells, SEAP reporter); type: cell-based; settings: 18 h treatment
T1 construct: host or cells: HEK-Blue TLR7 cells (engineered human embryonic kidney cells)
T1 sequence (Q9NYK1 27-1049): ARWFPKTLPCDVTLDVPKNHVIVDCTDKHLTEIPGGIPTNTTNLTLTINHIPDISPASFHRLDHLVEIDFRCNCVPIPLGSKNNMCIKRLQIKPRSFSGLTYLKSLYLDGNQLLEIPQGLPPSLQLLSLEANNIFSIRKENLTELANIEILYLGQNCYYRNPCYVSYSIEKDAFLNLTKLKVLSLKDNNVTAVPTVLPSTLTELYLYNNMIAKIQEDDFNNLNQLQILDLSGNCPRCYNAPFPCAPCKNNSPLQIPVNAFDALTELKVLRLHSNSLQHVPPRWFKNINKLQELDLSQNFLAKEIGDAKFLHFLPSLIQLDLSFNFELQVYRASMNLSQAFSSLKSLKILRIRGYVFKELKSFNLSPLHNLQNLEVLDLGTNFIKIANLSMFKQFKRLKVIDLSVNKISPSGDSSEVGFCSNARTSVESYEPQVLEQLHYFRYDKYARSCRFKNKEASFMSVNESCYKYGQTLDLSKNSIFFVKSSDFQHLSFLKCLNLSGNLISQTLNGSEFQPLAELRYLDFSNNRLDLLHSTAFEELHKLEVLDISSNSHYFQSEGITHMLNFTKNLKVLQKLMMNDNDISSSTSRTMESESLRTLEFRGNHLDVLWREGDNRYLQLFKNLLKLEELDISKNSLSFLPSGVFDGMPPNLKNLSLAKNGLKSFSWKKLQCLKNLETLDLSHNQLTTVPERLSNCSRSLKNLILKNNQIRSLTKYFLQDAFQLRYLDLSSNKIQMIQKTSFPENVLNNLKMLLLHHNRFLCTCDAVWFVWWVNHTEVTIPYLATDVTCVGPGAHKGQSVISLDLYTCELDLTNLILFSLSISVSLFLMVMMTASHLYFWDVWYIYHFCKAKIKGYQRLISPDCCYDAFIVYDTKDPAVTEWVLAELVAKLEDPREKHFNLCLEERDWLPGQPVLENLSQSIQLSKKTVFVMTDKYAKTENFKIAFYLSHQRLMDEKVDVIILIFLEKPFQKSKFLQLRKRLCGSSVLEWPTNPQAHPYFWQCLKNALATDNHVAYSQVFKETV
Summary of the method: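 HEK-Blue TLR7 cells (15,000/well) treated with compound for 18 h at 37 °C, 5% CO2. Secreted SEAP measured with Quanti-Blue, 30 min, OD 620 nm. EC50 taken as concentration giving half-maximal response between baseline and maximum.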

[1] = Table A2, read-out: hWB CD69 EC50
[2] = Table A2, read-out: hTLR7 Agonism EC50
[3] = average where assay repeated, Table A1, read-out: hWB CD69 EC50
[4] = average where assay repeated, Table A1, read-out: hTLR7 Agonism EC50

SMILES	EC50 (CD69; [1])	EC50 (human TLR7; [2])	EC50 (CD69; [3])	EC50 (human TLR7; [4])
CCCCNc1nc(N)nc2cnn(Cc3cc(COC4COC4)ccc3OC)c12 [Compound 141, N7-butyl-1-({2-methoxy-5-[(oxetan-3-yloxy)me-thyl]phenyl}methyl)-1H-pyrazolo[4,3-d]pyrimidine-5,7-diamine]	–	–	831 nM	498 nM
CCCCNc1nc(N)nc2cnn(Cc3cc(CN(C)C(=O)CCOC)ccc3OC)c12 [Compound 146, N-[(3-{[5-amino-7-(butyl-amino)-1H-pyrazolo[4,3-d]pyrimidin-1-yl]methyl}-4-methoxyphenyl)methyl]-3-methoxy-N-methylpropanamide]	–	–	≥ 1000 nM	499 nM
CCCCNc1nc(N)nc2cnn(Cc3cc(CNC4(C)CCOCC4)ccc3OC)c12 [Compound 119, N7-butyl-1-[(2-methoxy-5-{[(4-methyloxan-4-yl)amino]methyl}phenyl)methyl]-1H-pyrazolo[4,3-d]pyrimidine-5,7-diamine]	–	–	227 nM	529 nM
CCCCNc1nc(N)nc2cnn(Cc3cc(CN(C)CCN(C)C)ccc3OC)c12 [Compound 133, N7-butyl-1-{[5-({[2-(dimethylamino)ethyl](methyl)-amino}methyl)-2-methoxy-phenyl]methyl}-1H-pyrazolo [4,3-d]pyrimidine-5,7-diamine]	–	–	17 nM	176 nM
CCCCNc1nc(N)nc2cnn(Cc3cc(CN(C)C(=O)CCN(C)C)ccc3OC)c12 [Compound 128, N-[(3-{[5-amino-7-(butyl-amino)-1H-pyrazolo[4,3-d]pyrimidin-1-yl]methyl}-4-methoxyphenyl)methyl]-3-(dimethylamino)-N-methylpropanamide]	–	–	12.6 nM	56.2 nM
CCCCNc1nc(N)nc2cnn(Cc3cc(CN(C)C(=O)CCO)ccc3OC)c12 [Compound 147, N-[(3-{[5-amino-7-(butyl-amino)-1H-pyrazolo[4,3-d]pyrimidin-1-yl]methyl}-4-methoxyphenyl)methyl]-3-hydroxy-N-methylpropanamide]	–	–	455 nM	170 nM
CCCCNc1nc(N)nc2cnn(Cc3cc(CNC4COC4)ccc3OC)c12 [Compound 122, N7-butyl-1-[(2-methoxy-5-{[(oxetan-3-yl)amino]-methyl}phenyl)methyl]-1H-pyrazolo[4,3-d]pyrimidine-5,7-diamine]	–	–	225 nM	548 nM

Now from value to compound:

EC50 (CD69; [1])	EC50 (human TLR7; [2])	EC50 (CD69; [3])	EC50 (human TLR7; [4])	SMILES
39.2 nM	62.8 nM	–	–	CCC[C@@H](CCO)Nc1nc(N)nc2cnn(Cc3cc(CN4CCN(CCO)CC4)c(F)cc3OC)c12 [Compound 168, (3S)-3-({5-amino-1-[(4-fluoro-5-{[4-(2-hydroxyethyl)piperazin-1-yl]methyl}-2-methoxyphenyl)-methyl]-1H-pyrazolo[4,3-d]pyrimidin-7-yl}amino)hexan-1-ol]
6.2 nM	43.5 nM	–	–	CCC[C@@H](CCO)Nc1nc(N)nc2cnn(Cc3cc(CNC)c(F)cc3OC)c12 [Compound 169, (3S)-3-{[5-amino-1-({4-fluoro-2-methoxy-5-[(methylamino)-methyl]phenyl}methyl)-1H-pyrazolo[4,3-d]pyrimidin-7-yl]amino}hexan-1-ol]
34.5 nM	750 nM	–	–	CCC[C@@H](CCO)Nc1nc(N)nc2cnn(Cc3cc(CN4CCN(C)CC4)ncc3OC)c12 [Compound 177, (3S)-3-{[5-amino-1-({5-methoxy-2-[(4-methylpiperazin-1-yl)methyl]-pyridin-4-yl}methyl)-1H-pyrazolo[4,3-d]pyrimidin-7-yl]amino}hexan-1-ol]
–	–	199 nM	604 nM	CCC[C@@H](CCO)Nc1nc(N)nc2cnn(Cc3cc(CN4CC5(CN(C)C5)C4)ccc3OC)c12 [Compound 158, (3S)-3-[(5-amino-1-{[2-methoxy-5-({6-methyl-2,6-diazaspiro[3.3]heptan-2-yl}methyl)phenyl]methyl}-1H-pyrazolo[4,3-d]pyrimidin-7-yl)amino]-hexan-1-ol]
–	–	73.6 nM	56.9 nM	CCC[C@@H](CCO)Nc1nc(N)nc2cnn(Cc3cc(CN4CCN(CCO)CC4)ccc3OC)c12 [Compound 156, (3S)-3-({5-amino-1-[(5-{[4-(2-hydroxyethyl)piperazin-1-yl]methyl}-2-methoxy-phenyl)methyl]-1H-pyrazolo[4,3-d]pyrimidin-7-yl}amino)hexan-1-ol]
